Experimental data reported in US20120270237A9, “METHODS FOR THE IDENTIFICATION OF KINASE INTERACTING MOLECULES AND FOR THE PURIFICATION OF KINASE PROTEINS” (Cellzone AG, priority 2009, published 2012).

What was measured:
MARK2 = MARK2 (Homo sapiens, UniProt Q7KZI7); test: Kinobeads competition binding, HL60 cell lysate; design: endogenous in cells; host or cells: HL60 cell lysate; conditions: 10 μM free compound
Method: (§1) To one aliquot of cell lysate 10 μM of the free compound (FIG. 3, CZC31326) was added and allowed to bind to proteins in the lysate. Then the affinity matrix with the immobilized compound (Example 1) was added to capture proteins that were not interacting with the previously added free compound. Beads were separated from the lysate and bead bound proteins were eluted in SDS sample buffer and subsequently separated by SDS-Polyacrylamide gel electrophoresis (FIG. 4). Suitable gel bands were cut out and subjected to in-gel proteolytic digestion with trypsin. The second lysate aliquot was processed identically, however no free compound was added (DMSO solvent control). Peptides originating from samples 1 and 2 were labeled with iTRAQ reagents (iTRAQ 114 and iTRAQ 117) and the combined samples were analyzed with a nano-flow liquid chromatography system coupled online to a tandem mass spectrometer (LC-MS/MS) experiment followed by iTRAQ reporter ion quantification in the MS/MS spectra (Ross et al., 2004. Mol. Cell. Proteomics 3(12):1154-1169). Further experimental protocols can be found in WO2006/134056 and a previous publication (Bantscheff et al., 2007. Nature Biotechnology 25, 1035-1044). Sepharose-beads with the immobilized compound (100 μl beads per pull-down experiment) were equilibrated in lysis buffer and incubated with a cell lysate sample containing 50 mg of protein on an end-over-end shaker (Roto Shake Genie, Scientific Industries Inc.) for 2 hours at 4° C. […] The iTRAQ reagents are a set of multiplexed, amine-specific, stable isotope reagents that can label peptides on amino groups in up to four different biological samples enabling simultaneous identification and quantitation of peptides. […] Relative protein quantitation was performed using peak areas of iTRAQ reporter ion signals essentially as described in an earlier publication (Bantscheff et al., 2007. Nature Biotechnology 25, 1035-1044).

MAP3K5 = biological target: T1, MAP3K5 (Homo sapiens, UniProt Q99683); test: Kinobeads competition binding, HL60 cell lysate; design: endogenous in cells; host or cells: HL60 cell lysate; conditions: 10 μM free compound
T1 sequence (Q99683 1-1374): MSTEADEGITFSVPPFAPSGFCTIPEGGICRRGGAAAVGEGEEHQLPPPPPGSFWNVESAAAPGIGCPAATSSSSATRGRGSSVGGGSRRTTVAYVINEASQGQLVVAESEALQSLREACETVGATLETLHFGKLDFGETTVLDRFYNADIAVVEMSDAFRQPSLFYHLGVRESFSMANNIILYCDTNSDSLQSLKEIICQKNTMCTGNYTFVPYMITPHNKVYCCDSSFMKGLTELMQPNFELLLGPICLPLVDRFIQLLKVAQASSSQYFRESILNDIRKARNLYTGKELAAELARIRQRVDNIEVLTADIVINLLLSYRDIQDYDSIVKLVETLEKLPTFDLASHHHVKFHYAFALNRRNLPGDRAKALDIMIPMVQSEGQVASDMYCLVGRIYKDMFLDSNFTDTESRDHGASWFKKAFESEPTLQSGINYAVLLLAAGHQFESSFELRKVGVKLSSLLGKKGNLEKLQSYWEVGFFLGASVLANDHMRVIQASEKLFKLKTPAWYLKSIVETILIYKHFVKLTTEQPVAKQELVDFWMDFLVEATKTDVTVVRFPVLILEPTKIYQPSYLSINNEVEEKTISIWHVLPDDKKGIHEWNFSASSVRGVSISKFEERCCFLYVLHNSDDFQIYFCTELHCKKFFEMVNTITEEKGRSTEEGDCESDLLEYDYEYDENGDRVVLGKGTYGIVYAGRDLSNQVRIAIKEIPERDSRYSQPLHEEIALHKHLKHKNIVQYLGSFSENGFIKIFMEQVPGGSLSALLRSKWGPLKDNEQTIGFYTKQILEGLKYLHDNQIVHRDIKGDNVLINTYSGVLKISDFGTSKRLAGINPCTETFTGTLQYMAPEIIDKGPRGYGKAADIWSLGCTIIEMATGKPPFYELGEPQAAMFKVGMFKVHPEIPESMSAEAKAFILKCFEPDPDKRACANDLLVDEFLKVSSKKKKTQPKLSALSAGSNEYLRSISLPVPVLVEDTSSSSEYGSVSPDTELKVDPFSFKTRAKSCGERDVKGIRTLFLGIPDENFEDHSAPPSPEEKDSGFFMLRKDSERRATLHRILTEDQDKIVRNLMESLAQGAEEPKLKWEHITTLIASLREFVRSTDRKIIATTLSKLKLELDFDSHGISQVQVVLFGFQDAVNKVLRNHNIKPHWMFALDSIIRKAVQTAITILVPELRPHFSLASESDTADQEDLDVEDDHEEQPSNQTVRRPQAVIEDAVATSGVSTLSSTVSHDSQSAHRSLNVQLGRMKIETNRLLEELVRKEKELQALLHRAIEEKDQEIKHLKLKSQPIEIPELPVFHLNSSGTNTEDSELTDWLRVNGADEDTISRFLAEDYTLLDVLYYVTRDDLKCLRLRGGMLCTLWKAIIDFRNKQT
Method: as §1

Sequence of MARK2 (Q7KZI7 whole entry): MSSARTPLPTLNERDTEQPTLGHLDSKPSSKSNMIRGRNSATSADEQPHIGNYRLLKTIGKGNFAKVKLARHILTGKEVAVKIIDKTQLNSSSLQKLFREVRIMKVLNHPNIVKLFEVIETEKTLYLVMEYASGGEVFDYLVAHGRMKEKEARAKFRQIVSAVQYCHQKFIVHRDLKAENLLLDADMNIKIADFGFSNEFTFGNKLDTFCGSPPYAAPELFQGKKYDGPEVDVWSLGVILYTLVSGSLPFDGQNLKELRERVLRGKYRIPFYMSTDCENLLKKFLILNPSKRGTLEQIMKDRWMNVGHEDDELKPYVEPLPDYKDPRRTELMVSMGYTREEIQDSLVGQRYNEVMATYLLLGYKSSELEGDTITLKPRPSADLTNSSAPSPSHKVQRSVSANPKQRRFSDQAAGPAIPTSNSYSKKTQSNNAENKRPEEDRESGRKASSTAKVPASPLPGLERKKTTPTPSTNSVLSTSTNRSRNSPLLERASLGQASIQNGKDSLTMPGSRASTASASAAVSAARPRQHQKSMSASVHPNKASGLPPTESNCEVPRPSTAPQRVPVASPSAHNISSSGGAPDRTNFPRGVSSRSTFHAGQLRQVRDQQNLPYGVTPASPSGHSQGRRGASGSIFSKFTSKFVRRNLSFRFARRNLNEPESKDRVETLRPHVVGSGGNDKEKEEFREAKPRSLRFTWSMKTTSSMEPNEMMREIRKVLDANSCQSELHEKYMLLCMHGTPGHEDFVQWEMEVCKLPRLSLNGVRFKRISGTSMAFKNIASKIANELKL

SMILES: CS(=O)(=O)Nc1ccccc1Nc1nc(Nc2cccc(OCCN)c2)ncc1Cl [CZC31326, N-(2-(2-(3-(2-aminoethoxy)phenylamino)-5-chloropyrimidin-4-ylamino)phenyl)methanesulfonamide]
- inhibition at 10 µM (MARK2): 97.1%
- inhibition at 10 µM (MAP3K5): 88.4%
